Read-outs that look alike come from different tables or passages of the source. Marks after values point to notes of the source that are not given here.
Columns and labels:
[1] = biological target: T1, human serum albumin (HSA) (Homo sapiens, UniProt P02768); test: Binding constant by fluorescence quenching of intrinsic Trp fluorescence
Procedure: Thus, the binding constant for bilirubin and lumirubin to HSA was determined by quenching of the intrinsic Trp fluorescence. […] F0 was the fluorescence of HSA without a quencher, F the fluorescence of HSA with a quencher, CL was the quencher concentration, and CP was the concentration of HSA. The effect of cooperative binding of lumirubin and bilirubin was also studied, and the results were compared to the Ka obtained in the systems with biliverdin and gossypol, which served as a displacing agent of bilirubin from HSA [31, 32].

SH-SY5Y cells = test: Cell cycle phase by flow cytometry (propidium iodide); type: cell-based, human; conditions: bilirubin 24 μM, PI 15%, 1 and 24 hrs exposure, data not shown
Procedure: After centrifugation (310 x g; RT; 6 min), the sediments were re-suspended in 1 ml of staining solution in PBS containing 0.1% v/v Triton X-100, 20 μg/ml propidium iodide (PI), and 0.2 mg/ml DNAse free RNaseA. Samples were incubated in the dark for 30 min at RT, and subjected to FACS analysis (cytometer BD FACSCalibur TM; and CellQuest software, BD Biosciences, San Jose, CA). Data were collected for 10,000 events per sample.

HMOX1 = test: Gene expression by real-time PCR: HMOX1; type: cell-based, human; conditions: SH-SY5Y; bilirubin 24 μM, PI 15%; median (IQ range), n = 5; 1 hr exposure
Procedure: (§1) Briefly, total RNA was isolated in TriReagent (Sigma-Aldrich, St Louis, MO, USA) according to the manufacture's protocol and stored at -80°C until analysis. RNA quantity and purity were evaluated spectrophotometrically at 260 nm, and RNA integrity was evaluated by agarose gel electrophoresis. Retrotranscription of total RNA (1 μg) was performed with an iScript cDNA Synthesis Kit (Bio-Rad Laboratories, Hercules, CA, USA) according to the manufacturer's instructions. The final cDNA was conserved at -20°C until used. The primers for the targeted genes and the two housekeeping genes [hypoxanthine-guanine phosphoribosyltransferase (Hprt1) and glyceraldehydes 3-phosphate dehydrogenase (Gapdh)] were designed using Beacon Designer 2.0 software (PREMIER Biosoft International, Palo Alto, CA, USA). The quantitative analysis of gene expression was performed by real-time PCR. […] The relative quantification was made using iCycler iQ software, version 3.1 (Bio-Rad Laboratories, Hercules, CA, USA), by the ΔΔCt method, taking into account the efficiencies of the individual's genes, and normalizing the results to the two housekeeping genes. […] The results are expressed as the mean ± SD.

[2] = system: SH-SY5Y human neuroblastoma cell line; test: Cell viability (CellTiter-Glo and MTT); type: cell-based
Procedure: The SH-SY5Y human neuroblastoma cell line was used for the in vitro studies (ATCC, Manassas, VA, USA). Authentication of the cell line was confirmed by independent laboratory (Generi Biotech, Czech Republic). The cells were tested for Mycoplasma contamination using the MycoAlert luminescence test (Lonza, Switzerland). Cells were cultured in a mixture of MEM Eagle and Ham’s F12 media (1:1, v/v), containing 15% of fetal bovine serum, in 75 cm^2 culture flasks, at 37°C, in a 5% CO2 atmosphere. For functional tests, cells were seeded at a concentration of 50,000 cells per 1 cm^2.
The effect of bilirubin (24 μM), pure bilirubin PI (5%, 15%, and 30% of bilirubin PI in complete culture media), and the combination of bilirubin with bilirubin PI on cell viability was analyzed by both MTT (Sigma, Germany) as well as by luminescent CellTiter-Glo (Promega, USA) tests, using a Sunrise Microplate Reader (Tecan, Austria) and Synergy 2 Multi-mode Microplate Reader (BioTek, USA), respectively.

MRP1 = test: Gene expression by real-time PCR: MRP1; type: cell-based, human; conditions: SH-SY5Y; bilirubin 24 μM, PI 15%; median (IQ range), n = 5
Procedure: as §1, with “The effect of bilirubin and bilirubin PI (24 μM bilirubin (corresponding to 140 nM Bf), 15% bilirubin PI, and a mixture of bilirubin and 15% PI) on the expression of genes involved in heme catabolism and in the regulation of the cell cycle (Table 1) was investigated in SH-SY5Y cells exposed to pigments for 1 and 24 hrs, respectively. Briefly,” for “Briefly,”, “The primers for the targeted genes and the two housekeeping genes [hypoxanthine-guanine phosphoribosyltransferase (Hprt1) and glyceraldehydes 3-phosphate dehydrogenase (Gapdh)] were designed using Beacon Designer 2.0 software (PREMIER Biosoft International, Palo Alto, CA, USA).” left out

[3] = Stability of pigments in the incubation medium by HPLC
Procedure: The HPLC analyses were performed using an Agilent 1200 system (CA, USA) with a diode-array detector. […] The mobile phase consisted of 0.1 M di-n-octylamine acetate in methanol and water; the stationary phase was represented by a Poroshell 120, SB-C18 column (4.6 x 100 mm, 2.7 μm; Agilent, CA, USA). Samples were prepared by mixing 20 μl of bilirubin solution with 180 μl of ice-cold 0.1 M di-n-octylamine acetate in methanol, then vortexed and centrifuged to eliminate proteins. Twenty μl of the prepared sample was injected onto the column.
To check the stability of bilirubin PI, concentrations of bilirubin IXα, and EZ/ZE-bilirubins as well as Z-lumirubin after 1 and 24 hrs in the incubation medium were analysed by HPLC method (see above).

Cyclin E = test: Gene expression by real-time PCR: Cyclin E; type: cell-based, human; conditions: SH-SY5Y; bilirubin 24 μM, PI 15%; median (IQ range), n = 5
Procedure: as §1

Cyclin D1 = test: Gene expression by real-time PCR: Cyclin D1; type: cell-based, human; conditions: SH-SY5Y; bilirubin 24 μM, PI 15%; median (IQ range), n = 5
Procedure: as §1

BLVRA = test: Gene expression by real-time PCR: BLVRA; type: cell-based, human; conditions: SH-SY5Y; bilirubin 24 μM, PI 15%; median (IQ range), n = 5; 1 hr exposure
Procedure: as §1

heme oxygenase (HMOX) = test: Heme oxygenase activity determination (CO by gas chromatography); type: cell-based, human; conditions: SH-SY5Y; data not shown
Procedure: The activity of heme oxygenase (HMOX) was measured as described previously. In brief, culture media harvested from SH-SY5Y batches were added to CO-free, septum-sealed vials. CO released into the vial headspace was quantified using gas chromatography with a reduction gas analyzer (Peak Laboratories, Mountain View, CA, USA).

MDR1 = test: Gene expression by real-time PCR: MDR1; type: cell-based, human; conditions: SH-SY5Y; bilirubin 24 μM, PI 15%; median (IQ range), n = 5
Procedure: as §1, with “The effect of bilirubin and bilirubin PI (24 μM bilirubin (corresponding to 140 nM Bf), 15% bilirubin PI, and a mixture of bilirubin and 15% PI) on the expression of genes involved in heme catabolism and in the regulation of the cell cycle (Table 1) was investigated in SH-SY5Y cells exposed to pigments for 1 and 24 hrs, respectively. Briefly,” for “Briefly,”, “The primers for the targeted genes and the two housekeeping genes [hypoxanthine-guanine phosphoribosyltransferase (Hprt1) and glyceraldehydes 3-phosphate dehydrogenase (Gapdh)] were designed using Beacon Designer 2.0 software (PREMIER Biosoft International, Palo Alto, CA, USA).” left out

HMOX2 = test: Gene expression by real-time PCR: HMOX2; type: cell-based, human; conditions: SH-SY5Y; bilirubin 24 μM, PI 15%; median (IQ range), n = 5; 1 hr exposure
Procedure: as §1

[4] = biological target: T1, human serum albumin (HSA); test: Characterization of albumin binding sites by circular dichroism (CD) spectroscopy with marker ligands
From the text: CD spectra were obtained using a J-810 spectropolarimeter (Jasco, Japan) and analyzed as described elsewhere. […] For determination of the subdomain for lumirubin binding two compounds were used, hemin and bilirubin, as marker ligands for subdomain IB and IIA, respectively.

T1 sequence (P02768 25-609): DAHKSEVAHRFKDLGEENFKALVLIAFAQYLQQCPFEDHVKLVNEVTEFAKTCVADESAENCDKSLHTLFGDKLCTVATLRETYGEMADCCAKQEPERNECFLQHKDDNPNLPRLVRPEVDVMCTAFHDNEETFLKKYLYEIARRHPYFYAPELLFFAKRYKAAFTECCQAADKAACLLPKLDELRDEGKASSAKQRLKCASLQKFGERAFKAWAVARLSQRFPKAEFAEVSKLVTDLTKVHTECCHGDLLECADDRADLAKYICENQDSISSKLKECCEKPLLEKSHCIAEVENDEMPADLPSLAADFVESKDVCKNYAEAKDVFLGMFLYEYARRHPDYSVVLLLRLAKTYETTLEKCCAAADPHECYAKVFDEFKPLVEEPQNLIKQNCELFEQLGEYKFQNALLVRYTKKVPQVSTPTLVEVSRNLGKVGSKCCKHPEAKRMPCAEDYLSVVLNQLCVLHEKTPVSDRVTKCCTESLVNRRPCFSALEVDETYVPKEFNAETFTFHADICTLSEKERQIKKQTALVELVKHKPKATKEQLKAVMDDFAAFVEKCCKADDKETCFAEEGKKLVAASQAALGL

SMILES: C=CC1=C(C)/C(=C/c2[nH]c(Cc3[nH]c(/C=C4\NC(=O)C(C)=C4C=C)c(C)c3CCC(=O)O)c(CCC(=O)O)c2C)NC1=O [bilirubin, Z,Z-Bilirubin IXα]
- Kd [1]: 5.56 nM
- Ka, binding constant bilirubin-(HSA-biliverdin) ([1]; bilirubin binding to HSA in presence of biliverdin): (1.1±0.4)·10^8 M^-1
- Ka, binding constant bilirubin-(HSA-gossypol) ([1]; bilirubin binding to HSA in presence of gossypol (displacer)): (1.4±0.2)·10^5 M^-1
- Ka, binding constant bilirubin-(HSA-lumirubin) ([1]; bilirubin binding to HSA in presence of lumirubin): (8.7±1.3)·10^7 M^-1
- Effect on cell cycle progression (SH-SY5Y cells): no effect on the cell cycle progression
- HMOX1 mRNA expression (HMOX1): 232.2 (197–240) ^* % of control
- Effect on cell viability, short-term exposure ([2]; 60 min exposure, data not shown): did not have any effect on cell viability
- Effect on cell viability, 24 hr ([2]; 24 hr, bilirubin 24 μM, PI up to 30%, n = 7): significantly reduced
- Effect on cell viability, 48 hr ([2]; 48 hr, bilirubin 24 μM, PI up to 30%, n = 4): significantly reduced
- MRP1 mRNA expression (MRP1): 76.3 (71–90) % of control
- Stability after 24 hrs in the incubation medium [3]: stable
- Cyclin E mRNA expression (Cyclin E): 78.9 (50–126) % of control
- Cyclin D1 mRNA expression (Cyclin D1): 71.8 (64–157) % of control
- BLVRA mRNA expression (BLVRA): 142.9 (109–179) % of control
- Effect on HMOX activity (heme oxygenase (HMOX)): not translated onto increase of HMOX activity
- MDR1 mRNA expression (MDR1): 54.9 (35–84) % of control
- HMOX2 mRNA expression (HMOX2): 130.3 (129–166) ^* % of control

SMILES: C=CC1=C(C)/C(=C/c2[nH]c(CC3=C(CCC(=O)O)C4(C)CC=C5C(=CC4=N3)NC(=O)C5C)c(CCC(=O)O)c2C)NC1=O (stereo not shown) [lumirubin, Z-Lumirubin IXα]
- Kd ([1]; ligand bound to HSA alone, fluorescence quenching, read-out: Ka, binding constant for the ligand-HSA complex): 1080 nM
- Concentration remaining after 24 hrs in the incubation medium [3]: 31%
- Effect on bilirubin binding to HSA (CD signal) ([4]; both bilirubin and hemin bound to HSA, molar ratio 1/1/1): moderately affects bilirubin binding to HSA
- Localization of binding site on HSA ([4]; marker ligands hemin (IB) and bilirubin (IIA), molar ratio 1/1/1): subdomain IB
- Number of binding sites on HSA ([4]; pigment/HSA 1/1, 1.5 x 10^-5 mol/L, PBS pH 7.4): one binding site
